According to ChEMBL document CHEMBL5724696, “Autophagy assay results for EUbOPEN Chemogenomics Library” (2024):

Assays:
Format in all cases: functional, Homo sapiens
TERT-RPE1 = assay: (§1) Here: values are normalized to the negative (DMSO; defined as 0% autophagy induction) and positive (250nM Torin1; mTOR inhibitor; defined as maximal inducer of autophagy = 100%) control compounds and represented as % of autophagy induction. […] The impact of autophagy induction on cells is complex and depends on the affected target. As such, the magnitude of a phenotype may not be equally mirrored in the %-value of autophagy induction and vice versa. The dynamics of the induction may indicate the mode of activation: e.g. activation via phosphorylation or a signaling cascade may occur fast, while activation via transcription factors may take considerably longer. […] Of note, treatment concentrations may be sub-optimal for specific compounds, leading to false negative annotations.; settings: Culturing Media DMEM/F12 (1:1), 1 % Penicillin/Streptomycin, 10% Fetal bovin serum Add-On: No, Screening Media Control DMEM/F12 (1:1), Screening Media Samples DMEM/F12 (1:1)
U2OS [1] = assay: as §1; settings: Culturing Media DMEM, 1 % Penicillin/Streptomycin, 10% Fetal bovin serum Add-On: No, Screening Media Control DMEM, Screening Media Samples DMEM
U2OS [2] = assay: as §1; settings: Culturing Media DMEM, 1 % Penicillin/Streptomycin, 10% Fetal bovin serum Add-On: No, Screening Media Control DMEM, Screening Media Samples DMEM; remark: listed apart in the source
[3] = Compound Concentration 0.5 uM, Timepoint 12 hours
[4] = Compound Concentration 0.5 uM, Timepoint 24 hours
[5] = Compound Concentration 0.5 uM, Timepoint 36 hours
[6] = Compound Concentration 0.5 uM, Timepoint 60 hours
[7] = Compound Concentration 2 uM, Timepoint 12 hours
[8] = Compound Concentration 2 uM, Timepoint 24 hours
[9] = Compound Concentration 2 uM, Timepoint 36 hours
[10] = Compound Concentration 2 uM, Timepoint 60 hours
[11] = Compound Concentration 10 uM, Timepoint 12 hours
[12] = Compound Concentration 10 uM, Timepoint 24 hours
[13] = Compound Concentration 10 uM, Timepoint 36 hours
[14] = Compound Concentration 10 uM, Timepoint 60 hours

SMILES: CC(C)NCC(O)c1ccc(N)c(C#N)c1 (configuration not stated) [CIMATEROL]
- autophagy induction (TERT-RPE1; [3]): 2.2717%
- autophagy induction (TERT-RPE1; [4]): -0.618%
- autophagy induction (TERT-RPE1; [5]): -7.669%
- autophagy induction (TERT-RPE1; [6]): -22.0747%
- autophagy induction (TERT-RPE1; [7]): 9.171%
- autophagy induction (TERT-RPE1; [8]): 5.1156%
- autophagy induction (TERT-RPE1; [9]): 0.3735%
- autophagy induction (TERT-RPE1; [10]): -11.1579%
- autophagy induction (TERT-RPE1; [11]): 13.5821%
- autophagy induction (TERT-RPE1; [12]): 11.7661%
- autophagy induction (TERT-RPE1; [13]): 4.317%
- autophagy induction (TERT-RPE1; [14]): -0.2093%
- autophagy induction (U2OS [1]; [3]): -8.937%
- autophagy induction (U2OS [1]; [4]): -2.541%
- autophagy induction (U2OS [1]; [5]): -0.28%
- autophagy induction (U2OS [1]; [6]): 0.09617%
- autophagy induction (U2OS [1]; [7]): -0.2215%
- autophagy induction (U2OS [1]; [8]): -0.03889%
- autophagy induction (U2OS [1]; [9]): 0.3661%
- autophagy induction (U2OS [1]; [10]): 0.1358%
- autophagy induction (U2OS [1]; [11]): 14.0499%
- autophagy induction (U2OS [1]; [12]): 5.045%
- autophagy induction (U2OS [1]; [13]): 2.283%
- autophagy induction (U2OS [1]; [14]): 0.5754%
- autophagy induction (U2OS [2]; [3]): 3.679%
- autophagy induction (U2OS [2]; [4]): -3.232%
- autophagy induction (U2OS [2]; [5]): -4.651%
- autophagy induction (U2OS [2]; [6]): -4.997%
- autophagy induction (U2OS [2]; [7]): 6.803%
- autophagy induction (U2OS [2]; [8]): -0.3028%
- autophagy induction (U2OS [2]; [9]): -4.0163%
- autophagy induction (U2OS [2]; [10]): -10.3459%
- autophagy induction (U2OS [2]; [11]): 5.959%
- autophagy induction (U2OS [2]; [12]): -4.01%
- autophagy induction (U2OS [2]; [13]): -7.491%
- autophagy induction (U2OS [2]; [14]): -4.33%

SMILES: COc1ccc(S(=O)(=O)c2cc(OC)ccc2S(=O)(=O)c2ccc([C@H](C)NS(C)(=O)=O)cc2)cc1
- autophagy induction (TERT-RPE1; [3]): -6.482%
- autophagy induction (TERT-RPE1; [4]): -9.039%
- autophagy induction (TERT-RPE1; [5]): -9.847%
- autophagy induction (TERT-RPE1; [6]): -11.3186%
- autophagy induction (TERT-RPE1; [7]): -6.676%
- autophagy induction (TERT-RPE1; [8]): -10.1921%
- autophagy induction (TERT-RPE1; [9]): -12.367%
- autophagy induction (TERT-RPE1; [10]): -10.4808%
- autophagy induction (TERT-RPE1; [11]): -5.338%
- autophagy induction (TERT-RPE1; [12]): -8.134%
- autophagy induction (TERT-RPE1; [13]): -7.872%
- autophagy induction (TERT-RPE1; [14]): -5.175%
- autophagy induction (U2OS [1]; [3]): 5.1145%
- autophagy induction (U2OS [1]; [4]): 1.212%
- autophagy induction (U2OS [1]; [5]): 0.9926%
- autophagy induction (U2OS [1]; [6]): 0.6082%
- autophagy induction (U2OS [1]; [7]): 2.687%
- autophagy induction (U2OS [1]; [8]): 1.009%
- autophagy induction (U2OS [1]; [9]): 1.125%
- autophagy induction (U2OS [1]; [10]): 0.5012%
- autophagy induction (U2OS [1]; [11]): -3.021%
- autophagy induction (U2OS [1]; [12]): -0.6189%
- autophagy induction (U2OS [1]; [13]): -0.5987%
- autophagy induction (U2OS [1]; [14]): -0.1479%
- autophagy induction (U2OS [2]; [3]): 5.054%
- autophagy induction (U2OS [2]; [4]): -4.288%
- autophagy induction (U2OS [2]; [5]): -4.858%
- autophagy induction (U2OS [2]; [6]): -2.8349%
- autophagy induction (U2OS [2]; [7]): 5.036%
- autophagy induction (U2OS [2]; [8]): -1.126%
- autophagy induction (U2OS [2]; [9]): 2.146%
- autophagy induction (U2OS [2]; [10]): -5.198%
- autophagy induction (U2OS [2]; [11]): 5.742%
- autophagy induction (U2OS [2]; [12]): 6.2878%
- autophagy induction (U2OS [2]; [13]): 4.231%
- autophagy induction (U2OS [2]; [14]): -3.951%
